Data: patent US20020137929A1, “1 - (3-heterocyclylphenyl) isothiourea, -isourea, -guanidine and -amidine herbicidal agents” (Intellectual Property Department, BASF Aktiengesellschaft, priority 1998, published 2002)

Experiments:
ORYSAT (Rice, Tebonnet) = assay: Postemergence herbicidal evaluation; type: in vivo, Oryza sativa, (L.) Tebonnet; conditions: postemergence
Summary of the method: (§1)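 ~2-wk seedlings; postemergence spray, 40 psi; vehicle 1:1 acetone:water + 0.5% Tween 20; rate ≈0.0156–0.500 kg/ha; greenhouse hold; scored 4–5 wk after treatment, 0–9 scale vs control; repeat tests averaged.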

CYPSE (Flatsedge) [1] = assay: Postemergence weed control under flooded paddy conditions; type: in vivo, Cyperus serotinus; conditions: postemergence weeds, rated 3 to 4 weeks after treatment
Summary of the method: (§2)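 Herbicidal effect is judged by eye on a 0–9 scale versus control, 3–4 weeks after dosing. Dosing is into flood water kept 1.5–3 cm over the soil, at about 0.0313–0.500 kg/ha in aqueous/acetone 50/50 v/v, on 3–5 cm weeds and 1.5–2.5-leaf rice seedlings.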

ZEAMX (Corn, Field) = assay: Postemergence herbicidal evaluation; type: in vivo, Zea mays; conditions: postemergence
Summary of the method: as §1

CYPSE (Flatsedge) [2] = assay: Preemergence weed control under flooded paddy conditions; type: in vivo, Cyperus serotinus; conditions: rated 3-4 weeks after treatment
Summary of the method: (§3)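 Using flooded silt loam (water 1.5 to 3 cm deep), seeds sown in the top 0.5 cm were exposed preemergence to compound pipetted into the flood at about 0.0313 to 0.500 kg/ha. Effects were scored 0-9 by eye three to four weeks later.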

[3] = system: CHEAL (Lambsquarters, Common); assay: Postemergence herbicidal evaluation; type: in vivo, Chenopodium album; conditions: postemergence
Summary of the method: as §1

CASOB (Sicklepod) = assay: Postemergence herbicidal evaluation; type: in vivo, Cassia obtusifolia; conditions: postemergence
Summary of the method: as §1

MOOVA (Monochoria) = assay: Preemergence weed control under flooded paddy conditions; type: in vivo, Monochoria vaginalis; conditions: rated 3-4 weeks after treatment
Summary of the method: as §3

GALAP (Galium) = assay: Postemergence herbicidal evaluation; type: in vivo, Galium aparine; conditions: postemergence
Summary of the method: as §1

CYPIR (Rice Flatsedge) = assay: Postemergence weed control under flooded paddy conditions; type: in vivo, Cyperus iria; conditions: postemergence weeds, rated 3 to 4 weeks after treatment
Summary of the method: as §2

[4] = system: SAGPY (Arrowhead (Pygmaea)); assay: as above; type: in vivo, Sagittaria pygmaea; conditions: postemergence weeds, rated 3 to 4 weeks after treatment
Summary of the method: as §2

C=CCN1C(=O)C(CC(=O)NS(=O)(=O)c2ccccc2)SC1=Nc1cc(-n2c(=O)cc(C(F)(F)F)n(C)c2=O)c(F)cc1Cl (stereo not drawn) [Compound 101, 3-Allyl-2-{{2-chloro-5-[3,6-dihydro-3-methyl-2,6-dioxo-4-(trifluoromethyl)-1(2H)-pyrimidinyl]-4-fluorophenyl}imino}-4-oxo-N-(phenylsulfonyl)-5-thiazolidineacetamide]
Herbicidal rating ORYSAT (ORYSAT (Rice, Tebonnet); rate 0.0156 kg/ha): 2.5 | Herbicidal rating ORYSAT (ORYSAT (Rice, Tebonnet); rate 0.0313 kg/ha): 3.0 | Herbicidal rating ORYSAT (ORYSAT (Rice, Tebonnet); rate 0.0625 kg/ha): 4.0 | Herbicidal rating ORYSAT (ORYSAT (Rice, Tebonnet); rate 0.1250 kg/ha): 4.0 | Herbicidal rating CYPSE (CYPSE (Flatsedge) [1]; Rate 0.0313 kg/ha): 0.0 | Herbicidal rating CYPSE (CYPSE (Flatsedge) [1]; Rate 0.0625 kg/ha): 0.0 | Herbicidal rating CYPSE (CYPSE (Flatsedge) [1]; Rate 0.1250 kg/ha): 0.0 | Herbicidal rating CYPSE (CYPSE (Flatsedge) [1]; Rate 0.2500 kg/ha): 0.0 | Herbicidal rating CYPSE (CYPSE (Flatsedge) [1]; Rate 0.5000 kg/ha): 0.0 | Herbicidal rating ZEAMX (ZEAMX (Corn, Field); rate 0.0156 kg/ha): 4.5 | Herbicidal rating ZEAMX (ZEAMX (Corn, Field); rate 0.0313 kg/ha): 4.5 | Herbicidal rating ZEAMX (ZEAMX (Corn, Field); rate 0.0625 kg/ha): 5.0 | Herbicidal rating ZEAMX (ZEAMX (Corn, Field); rate 0.1250 kg/ha): 5.0 | CYPSE herbicidal effect rating (CYPSE (Flatsedge) [2]; 0.0313 kg/ha): 0.0 | CYPSE herbicidal effect rating (CYPSE (Flatsedge) [2]; 0.0625 kg/ha): 0.0 | CYPSE herbicidal effect rating (CYPSE (Flatsedge) [2]; 0.1250 kg/ha): 0.0 | CYPSE herbicidal effect rating (CYPSE (Flatsedge) [2]; 0.2500 kg/ha): 0.0 | CYPSE herbicidal effect rating (CYPSE (Flatsedge) [2]; 0.5000 kg/ha): 0.0 | Herbicidal rating CHEAL ([3]; rate 0.0156 kg/ha): 4.0 | Herbicidal rating CHEAL ([3]; rate 0.0313 kg/ha): 4.0 | Herbicidal rating CHEAL ([3]; rate 0.0625 kg/ha): 4.0 | Herbicidal rating CHEAL ([3]; rate 0.1250 kg/ha): 7.0 | Herbicidal rating CASOB (CASOB (Sicklepod); rate 0.0156 kg/ha): 0.0 | Herbicidal rating CASOB (CASOB (Sicklepod); rate 0.0313 kg/ha): 0.0 | Herbicidal rating CASOB (CASOB (Sicklepod); rate 0.0625 kg/ha): 2.0 | Herbicidal rating CASOB (CASOB (Sicklepod); rate 0.1250 kg/ha): 3.0 | MOOVA herbicidal effect rating (MOOVA (Monochoria); 0.0313 kg/ha): 5.0 | MOOVA herbicidal effect rating (MOOVA (Monochoria); 0.0625 kg/ha): 5.0 | MOOVA herbicidal effect rating (MOOVA (Monochoria); 0.1250 kg/ha): 7.0 | MOOVA herbicidal effect rating (MOOVA (Monochoria); 0.2500 kg/ha): 9.0 | MOOVA herbicidal effect rating (MOOVA (Monochoria); 0.5000 kg/ha): 9.0 | Herbicidal rating GALAP (GALAP (Galium); rate 0.0156 kg/ha): 0.0 | Herbicidal rating GALAP (GALAP (Galium); rate 0.0313 kg/ha): 1.0 | Herbicidal rating GALAP (GALAP (Galium); rate 0.0625 kg/ha): 1.0 | Herbicidal rating GALAP (GALAP (Galium); rate 0.1250 kg/ha): 2.0 | Herbicidal rating CYPIR (CYPIR (Rice Flatsedge); Rate 0.0313 kg/ha): 0.0 | Herbicidal rating CYPIR (CYPIR (Rice Flatsedge); Rate 0.0625 kg/ha): 0.0 | Herbicidal rating CYPIR (CYPIR (Rice Flatsedge); Rate 0.1250 kg/ha): 0.0 | Herbicidal rating CYPIR (CYPIR (Rice Flatsedge); Rate 0.2500 kg/ha): 3.0 | Herbicidal rating CYPIR (CYPIR (Rice Flatsedge); Rate 0.5000 kg/ha): 4.0 | Herbicidal rating SAGPY ([4]; Rate 0.0313 kg/ha): 0.0 | Herbicidal rating SAGPY ([4]; Rate 0.0625 kg/ha): 0.0 | Herbicidal rating SAGPY ([4]; Rate 0.1250 kg/ha): 0.0 | Herbicidal rating SAGPY ([4]; Rate 0.2500 kg/ha): 2.0 | Herbicidal rating SAGPY ([4]; Rate 0.5000 kg/ha): 4.0
